What was measured:
[1] = Measurement of log P values by HPLC on reversed phase columns (EEC directive 79/831 Annex V.A8; methods [a] pH 2.3, [b] pH 2.7, [c] pH 7.8); format: physicochemical
Description: Measurement of log P-values:
Measurement of log P values was performed according EEC directive 79/831 Annex V.A8 by HPLC (High Performance Liquid Chromatography) on reversed phase columns with the following methods:
^[a] Measurement was done at pH 2.3 with 0.1% phosphoric acid and acetonitrile as eluent with a linear gradient from 10% acetonitrile to 95% acetonitrile.
^[b] measurement of LC-MS was done at pH 2.7 with 0.1% formic acid in water and with acetonitrile (contains 0.1% formic acid) as eluent with a linear gradient from 10% acetonitrile to 95% acetonitrile.
^[c] Measurement with LC-MS was done at pH 7.8 with 0.001 molar ammonium hydrogen carbonate solution in water as eluent with a linear gradient from 10% acetonitrile to 95% acetonitrile.
Calibration was done with not branched alkan2-ones (with 3 to 16 carbon atoms) with known log P-values (measurement of log P values using retention times with linear interpolation between successive alkanones).. lambda-maX-values were determined using UV-spectra from 200 nm to 400 nm and the peak values of the chromatographic signals.

[2] = system: Haemonchus contortus; experiment: Haemonchus contortus - Test (HAEMCO); format: in vivo; conditions: after 5 days, 100% = all larvae killed
Description: Haemonchus contortus—Test (HAEMCO)
Solvent: dimethyl sulfoxide
To produce a suitable preparation of active compound, 10 mg of active compound are dissolved in 0.5 ml solvent, and the concentrate is diluted with “Ringer's solution” to the desired concentration.
Approximately 40 larvae of the red stomach worm (Haemonchus contortus) are transferred into a test tube containing compound solution.
After 5 days percentage of larval mortality is recorded. 100% efficacy means all larvae are killed, 0% efficacy means no larvae are killed.

[3] = method [b]: LC-MS, pH 2.7, 0.1% formic acid in water / acetonitrile
[4] = method [c]: LC-MS, pH 7.8, 0.001 molar ammonium hydrogen carbonate / acetonitrile
[5] = method [b]: LC-MS at pH 2.7, 0.1% formic acid in water / acetonitrile
[6] = method [c]: LC-MS at pH 7.8, 0.001 molar ammonium hydrogen carbonate in water / acetonitrile
[7] = method [a]: HPLC, pH 2.3, 0.1% phosphoric acid / acetonitrile

COC(CNC(=O)c1ccsc1Cl)c1ccc(Cl)cc1 (centres unmarked) [Compound 70]
logP [1, 3]: 3.15^[b] | logP [1, 4]: 3.13^[c]; | activity (efficacy: larval mortality) ([2]; 100 ppm): 100%

COC(c1ccc(Cl)cc1)C(C)NC(=O)c1ccccc1Br (centres unmarked) [Compound 131]
log P [1, 5]: 3.29^[b] | log P [1, 6]: 3.30^[c]; | activity (efficacy: larval mortality) ([2]; 20 ppm): 90%

COC(CNC(=O)c1ccoc1I)c1ccc(Cl)cc1 (centres unmarked) [Compound 71]
logP [1, 3]: 2.92^[b] | logP [1, 4]: 2.90^[c]; | activity (efficacy: larval mortality) ([2]; 100 ppm): 90%

C#CCOC(CNC(=O)c1sccc1C)c1ccc(Cl)cc1 (centres unmarked) [Compound 1]
logP [1, 7]: 3.18^[a] | activity (efficacy: larval mortality) ([2]; 100 ppm): 80%

COC(c1ccc(Cl)cc1Cl)C(C)NC(=O)c1sccc1C (centres unmarked) [Compound 58]
logP [1, 3]: 4.05^[b] | logP [1, 4]: 4.02^[c]; | activity (efficacy: larval mortality) ([2]; 100 ppm): 80%

COC(c1ccc(Cl)cc1)C(C)NC(=O)c1ccoc1C (centres unmarked) [Compound 59]
logP [1, 3]: 3.21^[b] | activity (efficacy: larval mortality) ([2]; 100 ppm): 90%

COC(c1ccc(Cl)cc1)C(C)(C)NC(=O)c1sccc1I (centres unmarked) [Compound 87]
logP [1, 3]: 4.77^[b] | logP [1, 4]: 4.47^[c];

CCOC(c1ccc(Cl)cc1Cl)C(C)NC(=O)c1c(F)cccc1C(F)(F)F (centres unmarked) [Compound 193]
log P [1, 5]: 4.55^[b] | log P [1, 6]: 4.53^[c];

COC(CNC(=O)c1cccnc1C(F)F)c1ccc(Cl)cc1Cl (centres unmarked) [Compound 101]
logP [1, 3]: 2.80^[b]

COC(c1cc(Cl)cc(Cl)c1)C(C)NC(=O)c1c(C(F)F)nn(C)c1F (centres unmarked) [Compound 43]
logP [1, 3]: 3.70^[b]

COC(c1ccc(F)cc1)C(C)NC(=O)c1ccccc1C (centres unmarked) [Compound 188]
log P [1, 5]: 2.91^[b] | log P [1, 6]: 2.86^[c];

COC(c1ccc(F)cc1)C(C)NC(=O)c1ccccc1F (centres unmarked) [Compound 183]
log P [1, 5]: 3.04^[b] | log P [1, 6]: 3.02^[c];

COC(c1ccc(Cl)cc1Cl)C(C)N(C(=O)c1cccnc1C(F)(F)F)C1CC1 (centres unmarked) [Compound 173]
log P [1, 5]: 4.44^[b]

COC(c1ccc(Cl)cc1Cl)C(C)NC(=O)c1c(C)nn(C)c1F (centres unmarked) [compound 13]
logP [1, 3]: 3.13^[b]

CCOC(c1ccc(Cl)cc1Cl)C(C)NC(=O)c1nccnc1Cl (centres unmarked) [Compound 214]
log P [1, 5]: 3.89^[b] | log P [1, 6]: 3.85^[c];

COC(CNC(=O)c1cccnc1Cl)c1ccc(Cl)cc1Cl (centres unmarked) [Compound 102]
logP [1, 3]: 2.75^[b]

COC(c1ccc(Cl)cc1)C(C)NC(=O)c1snc(Cl)c1Cl (centres unmarked) [Compound 61]
logP [1, 3]: 4.34^[b]

CCC(NC(=O)c1c(C(F)F)nn(C)c1Cl)C(OC)c1ccc(Cl)cc1Cl (centres unmarked) [Compound 48]
logP [1, 3]: 4.18^[b]

COC(CN(C(=O)c1nccnc1C(F)(F)F)C1CC1)c1ccc(Cl)cc1Cl (centres unmarked) [Compound 168]
log P [1, 5]: 4.37^[b]

COC(c1ccccc1Cl)C(C)NC(=O)c1cccnc1 (centres unmarked) [Compound 207]
log P [1, 5]: 1.94^[b] | log P [1, 6]: 2.09^[c];

COC(c1ccc(Cl)cc1Cl)C(C)(C)N(C)C(=O)c1ccccc1C(F)(F)F (centres unmarked) [Compound 182]
log P [1, 5]: 5.42^[b] | log P [1, 6]: 5.34^[c];

COC(c1ccc(Cl)cc1Cl)C1(NC(=O)c2cc([N+](=O)[O-])nn2C(F)F)CC1 (centres unmarked) [compound 122]
log P [1, 5]: 3.94^[b]

Cc1ccsc1C(=O)NCC(OCC(C)C)c1ccc(Cl)cc1 (centres unmarked) [compound 7]
logP [1, 7]: 4.49^[a]

COC(CNC(=O)c1c(C(F)F)nn(C)c1F)c1cc(Cl)cc(Cl)c1 (centres unmarked) [Compound 41]
logP [1, 3]: 3.33^[b]

COC(c1ccc(Cl)cc1Cl)C(C)N(C(=O)c1cccnc1Cl)C1CC1 (centres unmarked) [Compound 170]
log P [1, 5]: 4.03^[b]

COC(c1ccc(Cl)cc1Cl)C(C)NC(=O)c1c(C)c(C)nn1C(F)F (centres unmarked) [Compound 116]
log P [1, 5]: 3.97^[b] | log P [1, 6]: 3.84^[c];

CCOC(c1ccc(Cl)cc1Cl)C(C)NC(=O)c1sc(C)nc1C(F)(F)F (centres unmarked) [Compound 204]
log P [1, 5]: 4.37^[b] | log P [1, 6]: 4.42^[c];

COC(c1ccc(Cl)cc1Cl)C(C)NC(=O)c1c(C(F)F)nn(C)c1F (centres unmarked) [compound 14]
logP [1, 3]: 3.65^[b]

COC(c1ccc(Cl)cc1Cl)C1(NC(=O)c2ccccc2Cl)CC1 (centres unmarked) [Compound 154]
log P [1, 5]: 3.76^[b] | log P [1, 6]: 3.71^[c];

COC(c1ccc(Cl)cc1Cl)C(C)(C)NC(=O)c1ccccc1F (centres unmarked) [Compound 74]
logP [1, 3]: 4.80^[b] | logP [1, 4]: 4.77^[c];

COC(c1cc(Cl)cc(Cl)c1)C(C)NC(=O)c1cccnc1Cl (centres unmarked) [Compound 94]
logP [1, 3]: 3.17^[b]

COC(c1ccc(Cl)cc1Cl)C1(NC(=O)c2ccnn2C(F)F)CC1 (centres unmarked) [compound 121]
log P [1, 5]: 3.46^[b]

COC(c1ccccc1Cl)C(C)NC(=O)c1ccccc1I (centres unmarked) [Compound 146]
log P [1, 5]: 3.44^[b] | log P [1, 6]: 3.40^[c];

COC(c1ccc(Cl)cc1Cl)C1(NC(=O)c2c(C(F)F)nn(C)c2F)CC1 (centres unmarked) [Compound 51]
logP [1, 3]: 3.46^[b]

COC(c1ccc(Cl)cc1)C(C)NC(=O)c1ccccc1F (centres unmarked) [Compound 133]
log P [1, 5]: 3.40^[b] | log P [1, 6]: 3.44^[c];

COC(c1ccc(Cl)cc1Cl)C(C)(C)NC(=O)c1sccc1Cl (centres unmarked) [Compound 78]
logP [1, 3]: 5.34^[b] | logP [1, 4]: 5.31^[c];

COC(c1ccc(Cl)cc1Cl)C(C)NC(=O)c1cccnc1Cl (centres unmarked) [Compound 34]
activity (efficacy: larval mortality) ([2]; 100 ppm): 90%

CCOC(c1ccc(Cl)cc1Cl)C(C)NC(=O)c1ccccc1C(F)F (centres unmarked) [Compound 199]
log P [1, 5]: 4.45^[b] | log P [1, 6]: 4.40^[c];

COC(c1ccc(Cl)cc1)C(C)NC(=O)c1c(F)cccc1C(F)(F)F (centres unmarked) [Compound 134]
log P [1, 5]: 3.65^[b] | log P [1, 6]: 3.61^[c];

COC(c1cc(Cl)cc(Cl)c1)C(C)NC(=O)c1cccnc1C(F)F (centres unmarked) [Compound 93]
logP [1, 3]: 2.03^[b]

CCOC(c1ccc(Cl)cc1Cl)C(C)NC(=O)c1cccnc1 (centres unmarked) [Compound 206]
log P [1, 5]: 2.89^[b] | log P [1, 6]: 3.03^[c];

COC(c1ccccc1Cl)C(C)NC(=O)c1ccccc1C (centres unmarked) [Compound 148]
log P [1, 5]: 3.26^[b] | log P [1, 6]: 3.23^[c];

COC(c1ccccc1Cl)C(C)NC(=O)c1sc(C)nc1C(F)(F)F (centres unmarked) [Compound 212]
log P [1, 5]: 3.34^[b] | log P [1, 6]: 3.31^[c];

CCOC(c1ccc(Cl)cc1Cl)C(C)NC(=O)c1ccccc1C (centres unmarked) [Compound 198]
log P [1, 5]: 4.35^[b] | log P [1, 6]: 4.33^[c];

CCOC(c1ccc(Cl)cc1Cl)C(C)NC(=O)c1c(F)cccc1F (centres unmarked) [Compound 196]
log P [1, 5]: 4.14^[b] | log P [1, 6]: 4.13^[c];

COC(c1ccc(Cl)cc1Cl)C(C)NC(=O)c1cc(C)nn1C (centres unmarked) [compound 124]
log P [1, 5]: 3.08^[b]

COC(c1ccccc1Cl)C(C)NC(=O)c1ccccc1F (centres unmarked) [Compound 147]
log P [1, 5]: 3.44^[b] | log P [1, 6]: 3.42^[c];

COC(c1ccc(Cl)cc1)C(C)NC(=O)c1ccccc1[N+](=O)[O-] (centres unmarked) [Compound 139]
log P [1, 5]: 2.83^[b] | log P [1, 6]: 2.93^[c];

COC(c1ccc(Cl)cc1Cl)C1(NC(=O)c2ccccc2C)CC1 (centres unmarked) [Compound 153]
log P [1, 5]: 3.75^[b] | log P [1, 6]: 3.72^[c];

COC(CNC(=O)c1c(C(F)F)nn(C)c1F)c1ccc(Cl)cc1Cl (centres unmarked) [Compound 45]
logP [1, 3]: 3.25^[b]

COC(c1ccc(Cl)cc1Cl)C(C)N(C(=O)c1nccnc1C(F)(F)F)C1CC1 (centres unmarked) [Compound 174]
log P [1, 5]: 4.69^[b]

CCC(NC(=O)c1cccnc1Cl)C(OC)c1ccc(Cl)cc1Cl (centres unmarked) [Compound 89]
logP [1, 3]: 3.33^[b]

CCOC(c1ccc(Cl)cc1Cl)C(C)NC(=O)c1c(C(F)F)nn(C)c1F (centres unmarked) [Compound 47]
logP [1, 3]: 4.20^[b]

COC(c1cc(Cl)cc(Cl)c1)C(C)NC(=O)c1cccnc1C(F)(F)F (centres unmarked) [Compound 96]
logP [1, 3]: 3.52^[b]

COC(CNC(=O)c1cccnc1C(F)(F)F)c1cc(Cl)cc(Cl)c1 (centres unmarked) [Compound 119]
log P [1, 5]: 3.19^[b]

Source: patent publication US20160100579A1, “NEMATICIDAL N-(2-SUBSTITUTED 2-PHENYLETHYL)CARBOXAMIDES AND N-(2-SUBSTITUTED 2-PHENYLETHYL)-THIOCARBOXAMIDES” (priority 2013, published 2016)
